These results are taken from patent publication EP0773292A1, “Immortalised embryonic hippocampal cells and their use” (BAYER AG, priority 1995, dated 1997).

Holding throughout (type): cell-based, murine
Test [1] deals with HNMMCV13.1.E. Put plainly: Electrophysiology: whole-cell patch-clamp, ligand-activated currents. The following applies: 13.1.E; membrane potential clamped to -70mV. As for the experimental part: (§1) Electrophysiological setup: Membrane currents were measured with the patch-clamp technique in the whole-cell recording configuration (Hamill et al. 1981, Pfluegers Arch. 391:85-100). Current signals were amplified with conventional electronics (EPC-9 amplifier, HEKA Elektronik GmbH, Lambrecht, Germany), filtered at 10kHz, and sampled at 5 kHz by an interface connected to an IBM AT-compatible computer system, which also served as a stimulus generator.
(§2) Solutions and electrodes: The standard bathing solution contained (in mM): Nacl 150, KCL 5, MgCl2 1.8, HEPES 5, and glucose 10. In some experiments an equimolar amount of NaCl was replaced by 5mM BaCl2. Recording pipettes had resistances about 5MΩ (Hilgenberg, Malsfeld, Germany). The pipettes contained (in mM): KCL 140, CaCl2 0.5, EGTA 5, MgCl2 2, and HEPES 10. The pH was adjusted to 7.4. In some experiments the pipette solution was designed to minimize the contribution of voltage-activated currents. In this case, investigating the ligand-activated currents, the pipette solution contained (in mM): CsCl 140, EGTA 10, and HEPES 10.
(§3) Ligands were dissolved in the extracellular saline solution and applied via an U-tube application system. To record ligand-induced currents, the membrane potential was clamped to -70mV. For measurements of voltage-activated currents, cells were held at -70mV and every second the membrane was stepped through a 50 msec. de- or hyperpolarising test pulse to a potential between -170 and +20 mV.
A general note: In patch-clamp work, channel activity is measured electrically.

A further test concerns HC e/n XVB cells. Described as above. The conditions noted are these: for ligand-activated currents: membrane potential clamped to -70mV. The procedure:
as §1, §2, §3

Test [2] relates to HNMMCV14.1.A. The description is as above. The procedure:
as §1, §2, §3

In a further test the test system is HNMMCV11.2.0. Put plainly: Ca2+-imaging (Fura-2), rise in intracellular calcium. The procedure: (§4) Fluorescent Probe: Dynamic changes of intracellular calcium concentration were measured using the Fura-2 fluorescent probe (Roe et al. 1990, Cell Calcium 11:63-73). This fluorescent dye was chosen because of its selectivity, high quantum yield and extinction co-efficient. Fura-2 permeates the living cell as a acetoxymethylester and becomes trapped within the cell after hydrolysis by intracellular esterases. The calcium-sensitive free acid of Fura-2 is able to bind to calcium ions inside the cell. Fura-2 has an excitation maximum at 380 nm and the Fura2/calcium complex peaks at 340 nm. A change in intracellular calcium concentration was calculated by recording fluorescent video images at wavelengths of 340nm and 380nm excitation and 510nm emission and by dividing the grey values of the digitized video images of 380nm from 340nm.
(§5) Loading cells with Fura-2: A stock solution with 2mM Fura-2-acetoxymethylester in dimethylsulfoxide (DMSO) was diluted to 5-10 µM with serum free Minimal Essential Medium (MEM, Gibco) containing 1.5% bovine serum albumin and 5 mM calcium chloride. The cells were incubated in a Falcon 96 well plate for 45-60 minutes at 37°C. Subsequently the cells were washed twice in N-(2-Hydroxyethyl)piperazine-N'-(2-ethanesulfonic acid) (HEPES, 5mM) buffered Tyrode solution (HEPES buffered salt solution containing 130 mM NaCl, 5 mM KCl, 2 mM CaCl2, 1 mM MgCl2, 5mM NaHCO3, 11 mM Glucose).
(§6) Imaging procedure: 100 µl of Tyrode buffer was added to the plate wells and the cells were sequencially exposed to light at 340 nm and 380 nm under a fluorescent microscope (Nikon Diaphot). The exposition time was 100 ms. A series of video images at 3 second intervals was acquired and stored as digitised pictures in the image boards of an image analysis computer (Leica, Quantimet 570). After the acquisition of 8 images the test substances were applied. The grey levels of the cells, which correspond to the fluorescence intensity, were measured in the recorded video images. The ratio was determined by dividing the measured grey levels of the "380 nm images" by the grey levels of the "340 nm images" either from averaged images or from individual cells. For averaged results, the grey levels were measured over the whole images.
(§7) The cells were loaded with Fura 2/AM between day 3 and 7 in culture. A number of agonists were tested for their ability to activate specific receptors on the cell surface which leads to a rise in intracellular calcium. The rise in calcium concentration in the cytoplasm can occur after activation of specific calcium channels in the cell membrane, after activation of neurotransmitter receptors directly coupled to ion channels that are permeable to calcium ions (i.e. NMDA or AMPA type glutamate receptors), or by activation of receptors, which propagate the signal through the activation of specific G-proteins, which regulate the activity of different enzymes in the interior of the cell (Connor, Cell Calcium 14 (1993), 185-200; Crouch and Hendry, Medical Res. Rev. 13 (1993), 105-123). The activation of phospholipase C generates the second messengers diacylglycerol and inositoltriphosphate from phospholipids in the cell membrane. The binding of inositoltriphosphate to receptors localised on internal vesicles which store calcium ions leads to a transient rise in the concentration of calcium ions in the cytoplasm (Berridge, M.J. 1993, Nature 361: 315-325).
(Calcium flux is commonly read through the fluorescence of an indicator in the cells.)

In test [3] the test system is HNMMCV13.1.E. Described as above. As for the experimental part: as §4, §5, §6, §7
In test [4] the test system is HNMMCV14.1.A. Described as above. As for the experimental part: as §4, §5, §6, §7
The next test has as its system HC e/n XV.B cells. The test is described as above. As for the experimental part:
as §4, §5, §6, §7

The test system of another test is HNMMCV13.1.F. The test is described as above. As for the experimental part: as §4, §5, §6, §7
For test [5], the system named is v-myc-expressing lines and clones. Put plainly: Induction of differentiation. The following applies: 1mM dbcAMP. The procedure:
For experiments in the presence of growth factors or other differentiation inducing agents, the primary cell cultures or the immortalised cell lines were cultured in the presence of one or a combination of the following: β-FGF, 1ng/ml, (Collaborative Research), EGF; 5 ng/ml or 10 ng/ml, (Collaborative Research), NGF (10 ng/ml, Collaborative Reasearch), dibutyryl cyclic adenosine monophosphate (dbcAMP, 1mM, Sigma, Heidelberg), retinoic acid (5 µM; Sigma), IL-7 (50 U/ml), TGFα (5ng/ml).
To induce differentiation in vitro several combinations of the following factors were used: retinoic acid (RA, 10 µM), NGF, β-FGF, EGF, IL-7, TGFα, dbcAMP (1mM). In addition the effect of co-culture with cortical glial cells originating from postnatal day 0 to 1 and granule neurons originating from postnatal day 6 mice was investigated.

As to `N[C@@H](CCC(=O)O)C(=O)O` [Glutamate, L-glutamate], the ligand-activated currents entry is recorded as “+ (+: 10-30% positive cells)” in the test with HNMMCV13.1.E [1]; “-” in the test on HC e/n XVB cells (XV. B (with EGF, undifferentiated)); “++ (++: 30-70% positive cells)” in the test on HC e/n XVB cells (XV. B/ - EGF (differentiated)).

Consider `C=C(C)[C@H]1CN[C@H](C(=O)O)[C@H]1CC(=O)O` [Kainate, kainic acid], for which the ligand-activated currents entry in the test on HNMMCV14.1.A [2] was “+ / -”. Moreover, the “I/V curve of the ligand response” value in the test on HC e/n XVB cells is “linear”. Besides, the “ligand induced inward currents” value in the test with HC e/n XVB cells was “evoked responses with different peak amplitudes”. In addition, the “reversal potential of the ligand-activated current” value in the test with HC e/n XVB cells is reported as 0 mV. Besides, the “transient calcium currents after the application of agonists and antagonists” value in the test with HNMMCV11.2.0, in the test on HNMMCV13.1.E [3], in the test with HNMMCV14.1.A [4] and with HNMMCV13.1.F was “-” each time. Also, the “transient rise in intracellular calcium concentration” value in the test with HNMMCV11.2.0 was “did not result in a transient rise in intracellular calcium concentrations”; in the test on HNMMCV13.1.E [3] it was “did not result in a transient rise in intracellular calcium concentrations”; in the test on HNMMCV14.1.A [4], “did not result in a transient rise in intracellular calcium concentrations”; in the test with HC e/n XV.B cells, “reproducible calcium signal”; with HNMMCV13.1.F it was “did not result in a transient rise in intracellular calcium concentrations”.

On to `CCCC(=O)Nc1ncnc2c1ncn2[C@@H]1O[C@@H]2COP(=O)(O)O[C@H]2[C@H]1OC(=O)CCC` [dbcAMP, dibutyryl cyclic adenosine monophosphate], for which the “expression of MAP-2” value in test [5] (cell line HNMMCV11.2.) is “induction of the expression of MAP-2”. In addition, in test [5] (v-myc-expressing lines and clones), the “differentiation of the cells” value is listed as “induced a partial differentiation”.
